Measured values taken from PubChem BioAssay (NCI).
Several values for one entry are separate records, joined by “and”; a condition that tells them apart may be missing. Identical values can stand only once.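 Grown in 96-well plates, cells were treated for 48 hours with each compound at five concentrations. Insufficient inhibition: endpoint recorded as highest concentration tested. Abbreviation: GI50, concentration required for 50% inhibition of growth. The concentration for full growth arrest is given as TGI.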

Columns and labels:
Assay in all cases: growth of human tumour cells (NCI), 48 h
CAKI-1 renal = test system: CAKI-1 renal
NCI-H23 lung = test system: NCI-H23 lung
TK-10 renal = test system: TK-10 renal
PC-3 prostate = test system: PC-3 prostate
HCC-2998 colon = test system: HCC-2998 colon
MDA-MB-231 breast = test system: MDA-MB-231 breast
A498 renal = test system: A498 renal
UACC-257 melanoma = test system: UACC-257 melanoma
NCI-H460 lung = test system: NCI-H460 lung
RXF 393 renal = test system: RXF 393 renal
HOP-92 NSCLC = test system: HOP-92 NSCLC
K-562 leukemia = test system: K-562 leukemia
OVCAR-3 ovarian = test system: OVCAR-3 ovarian

| SMILES | TGI (CAKI-1 renal) [µM] | TGI (NCI-H23 lung) [µM] | TGI (TK-10 renal) [µM] | TGI (PC-3 prostate) [µM] | TGI (HCC-2998 colon) [µM] | TGI (MDA-MB-231 breast) [µM] | TGI (A498 renal) [µM] | TGI (UACC-257 melanoma) [µM] | TGI (NCI-H460 lung) [µM] | TGI (RXF 393 renal) [µM] | TGI (HOP-92 NSCLC) [µM] | TGI (K-562 leukemia) [µM] | TGI (OVCAR-3 ovarian) [µM] | GI50 (CAKI-1 renal) |
| --- | --- | --- | --- | --- | --- | --- | --- | --- | --- | --- | --- | --- | --- | --- |
| CCN(CCCl)c1cc(CN(C)C)cc(NC(=O)c2ccc(C(=O)Nc3ccccc3)cc2)c1 | 3.69 | 1.27 | 7.57 | 1.56 | 2.51 | 7.55 | 1.8 | 3.27 | 1.27 | 0.307 | 3.87 | 8.31 | – | – |
| CNC(=O)OCC1=C(COC(=O)NC)C(C)N(c2ccccc2)C1 (stereo not drawn) | – | > 100 | > 100 | > 100 | 80.3 | > 100 | 7.51 | > 100 | > 100 | > 100 | > 100 | 72 | 92.7 | – |
| COc1cc2c3cc1Oc1c(OC)c(OC)cc4c1C(Cc1ccc(O)c(c1)-c1cc(ccc1OC)CC3N(C)CC2)N(C)CC4 (stereo not drawn) | 59.6 | 51.5 | > 100 | > 100 | 37.9 | 35.4 | 46.3 | 59.3 | 51.2 | 6.7 | 53.7 | 61.8 | > 100 | – |
| COC1C(OC(C)=O)CC(=O)OC(C)C/C=C/C=C\C(O)C(C)CC(CC=O)C1OC1OC(C)C(OC2CC(C)(O)C(OC(=O)CC(C)C)C(C)O2)C(N(C)C)C1O (stereo not drawn) | > 100 | > 100 | > 100 | > 100 | > 100 | > 100 | > 100 | > 100 | > 100 | > 100 | > 100 | > 100 | > 100 | – |
| COC(=O)C1SC[C@H]2C(=O)N(c3ccccc3)C(=O)N12 (stereo partly drawn) | > 100 | > 100 | > 100 | > 100 | > 100 | > 100 | > 100 | > 100 | > 100 | > 100 | > 100 | > 100 | > 100 | – |
| NC(Cc1ccc(O)cn1)C(=O)O (stereo not drawn) | > 100 | > 100 | > 100 | > 100 | > 100 | > 100 | > 100 | > 100 | > 100 | > 100 | > 100 | > 100 | > 100 | – |
| COc1ccc(NC(=S)Nc2c(C)n(C)n(-c3ccccc3)c2=O)cc1 | > 100 | > 100 | > 100 | > 100 | > 100 | > 100 | > 100 | > 100 | > 100 | > 100 | > 100 | > 100 | > 100 | – |
| COC(=O)[C@]1(Cc2ccc3ccccc3c2)CCCCCCN1C(=O)c1ccccc1 | – | > 45.9 | > 80.8 | > 45.7 | > 49 | > 53.5 | > 51.5 | 25 | > 50.2 | > 47.5 | > 52.9 | > 100 | > 43.5 | – |
| NS(=O)(=O)c1ccc(N2C(=O)C(=O)N(c3ccccc3)C2=S)cc1 | > 100 | > 100 | > 100 | > 100 | > 100 | > 100 | > 100 | > 100 | > 100 | > 100 | 95.9 | > 100 | – | – |
| COc1ncc(C#CC(=O)c2ccccc2)c(OC)n1 | 7.3 | 10.9 | – | 4.43 | 13.3 | 5.49 | 32.4 | 14.7 | 38 | 3.79 | 4.3 | – | 10.3 | – |
| ClCCc1ccccc1CC1=NCCc2ccccc21 | 92.4 | 74.5 | > 100 | > 100 | 62.5 | 96.2 | > 100 | > 100 | 62.7 | 61.8 | > 100 | > 100 | > 100 | – |
| CC1OC(OC2C[C@](O)(C(=O)CBr)Cc3c(O)c4c(c(O)c32)C(=O)c2ccccc2C4=O)C(F)C(O)C1O (stereo partly drawn) | 49 | 36.2 | > 87.4 | > 68.2 | > 100 | 25.2 | 30.9 | 39.6 | 48.6 | 35.6 | 40.6 | > 38.8 | 42.9 | – |
| Cc1c(C#N)c(N)n(C2OC(CO)C(O)C(O)C2O)c(=S)c1C#N (stereo not drawn) | > 100 | > 100 | > 100 | > 100 | > 100 | > 100 | > 100 | > 100 | > 100 | > 100 | > 100 | > 100 | > 100 | 24.4 µM and > 100 µM |
| S=C(S)N1CCN(c2ccccc2)CC1 | > 100 | – | > 100 | > 100 | > 100 | > 100 | > 100 | > 100 | – | > 100 | > 100 | > 100 | > 100 | – |
| COc1ccc(C(=O)N(Cc2cccnc2)C(=S)N(Cc2cccnc2)C(=O)c2ccc(OC)cc2)cc1 | > 100 | > 100 | > 100 | > 100 | > 100 | > 100 | > 100 | > 100 | > 100 | > 100 | > 100 | > 100 | > 100 | – |
| C=CC(C)(C)n1cc(C2=C(O)C(=O)C(c3c(CC=C(C)C)[nH]c4ccccc34)=C(O)C2=O)c2ccccc21 | 7.16 | 19.6 | – | 4.78 | 2.33 | 7.78 | 2.99 | 9.3 | 4.36 | 6.05 | 3.35 | 5.02 | 3.05 | – |
| CCCCN1CCC(O)(c2cc(C(=O)O)[nH]c2-c2cc(C)no2)C1=O (stereo not drawn) | > 100 | > 100 | > 100 | > 100 | > 100 | > 100 | > 100 | > 100 | > 100 | > 100 | > 100 | > 100 | > 100 | – |
